Data: paper PMC6273978, “Synthesis and Pharmacological Evaluation of Novel Pleuromutilin Derivatives with Substituted Benzimidazole Moieties” (Molecules, 2016)
Converted amounts (≈) assume the structure as drawn.

Experiments:
[1] = test system: Staphylococcus haemolyticus (S. haemolyticus); test: MIC testing, agar dilution method; format: cell-based; conditions: 36.5 °C, 24–48 h
Source text: (§1) The synthesized pleuromutilin derivatives 3 and 4a–l, with tiamulin fumarate used a as reference drug, were screened for their in vitro antibacterial activity against Escherichia coli (E. coli), Staphylococcus aureus (S. aureus), Methicillin-resistant Staphylococcus aureus (MRSA), Staphylococcus vitulinus (S. vitulinus), Staphylococcus warneri (S. warneri), and Staphylococcus haemolyticus (S. haemolyticus). The antibacterial activities are reported in Table 1 as the minimum inhibitory concentration (MIC) using the agar dilution method. The MICs of the 13 new pleuromutilin derivatives in vitro against E. coli ranged from 10 to 80 μg/mL; against S. aureus, MRSA, S. vitulinus, S. warneri, and S. haemolyticus ranged from 0.156 to 40 μg/mL, respectively.
(§2) The MIC for the synthesized compounds (3 and 4a–l) and tiamulin fumarate used as a reference drug were determined using the agar dilution method according to the National Committee for Clinical Laboratory Standards (NCCLS). Tested compounds were dissolved in 25%–40% DMSO to a solution with a concentration of 1280 µg/mL, whereas tiamulin fumarate was directly dissolved in 10 mL of distilled water at the same concentration as the tested compounds. All the solutions were then diluted twofold with sterile water to provide 11 dilutions (final concentration is 0.625 µg/mL). A 2 mL volume of the 2-fold serial dilution of each test compound/drug was incorporated into 18 mL of hot Muellere-Hinton agar medium. Inoculums, including five Gram (+), S. aureus, MRSA, S. vitulinus, S. warneri, S. haemolyticus, and one Gram (−), E. coli were prepared from blood slants and adjusted to approximately 10^5–10^6 CFU/mL with sterile saline (0.90% NaCl). A 10 µL amount of bacterial suspension was spotted onto Muellere-Hinton agar plates containing serial dilutions of the compounds/drug. The plates were incubated at 36.5 °C for 24–48 h. The same procedure was repeated in triplicate.

[2] = test system: Staphylococcus aureus (S. aureus); test: MIC testing, agar dilution method; format: cell-based; conditions: 36.5 °C, 24–48 h
Source text: as §1, §2

[3] = test system: Staphylococcus vitulinus (S. vitulinus); test: MIC testing, agar dilution method; format: cell-based; conditions: Mammaliicoccus vitulinus, 36.5 °C, 24–48 h
Source text: as §1, §2

[4] = test system: Escherichia coli (E. coli); test: MIC testing, agar dilution method; format: cell-based; conditions: 36.5 °C, 24–48 h
Source text: as §1, §2

[5] = test system: Methicillin-resistant Staphylococcus aureus (MRSA); test: MIC testing, agar dilution method; format: cell-based; conditions: 36.5 °C, 24–48 h
Source text: as §1, §2

[6] = test system: Staphylococcus warneri (S. warneri); test: MIC testing, agar dilution method; format: cell-based; conditions: 36.5 °C, 24–48 h
Source text: as §1, §2

E. coli = test: Oxford cup assay, zone of inhibition; format: cell-based; conditions: Escherichia coli
Description: (§3) The Oxford cup assays were carried out to evaluate the antibacterial activities against the above-mentioned six bacterial strains. The zones of inhibition for two concentrations (320 and 160 μg/mL) of the synthetic compounds and tiamulin fumarate were measured. The results of Oxford cup assay correspond with that obtained by agar dilution method (MICs) as a whole.
(§4) The procedure for Oxford cup assays was the same as that previously reported. Briefly, inoculums were prepared in 0.9% saline using McFarland standard and spread uniformly on nutrient agar plates. The 320 and 160 µg/mL of all the tested compounds were added individually into the Oxford cups that were placed at equal distances above the agar surfaces. The zone of inhibition for each concentration was measured after a 24–36 h incubation at 37 °C. The same procedure was repeated in triplicate.

S. warneri = test: Oxford cup assay, zone of inhibition; format: cell-based; conditions: Staphylococcus warneri
Description: as §3, §4

MRSA = test: Oxford cup assay, zone of inhibition; format: cell-based; conditions: Staphylococcus aureus
Description: as §3, §4

S. haemolyticus = test: Oxford cup assay, zone of inhibition; format: cell-based; conditions: Staphylococcus haemolyticus
Description: as §3, §4

S. aureus = test: Oxford cup assay, zone of inhibition; format: cell-based; conditions: Staphylococcus aureus
Description: as §3, §4

S. vitulinus = test: Oxford cup assay, zone of inhibition; format: cell-based, Staphylococcus vitulinus; conditions: Mammaliicoccus vitulinus
Description: as §3, §4

Row | Structure (SMILES) | MIC [2] | MIC [3] | MIC [4] | MIC [5] | MIC [6] | MIC [1] | zone of inhibition at 160 µg/mL (E. coli) | zone of inhibition at 320 µg/mL (E. coli) | zone of inhibition at 160 µg/mL (S. warneri) | zone of inhibition at 320 µg/mL (S. warneri) | zone of inhibition at 160 µg/mL (MRSA) | zone of inhibition at 320 µg/mL (MRSA) | zone of inhibition at 160 µg/mL (S. haemolyticus) | zone of inhibition at 320 µg/mL (S. haemolyticus) | zone of inhibition at 160 µg/mL (S. aureus) | zone of inhibition at 320 µg/mL (S. aureus) | zone of inhibition at 160 µg/mL (S. vitulinus) | zone of inhibition at 320 µg/mL (S. vitulinus)
1 | C=C[C@]1(C)C[C@@H](OC(=O)CSc2nc3ccc(NC(=O)c4cccc(C)c4)cc3[nH]2)[C@]2(C)[C@H](C)CC[C@]3(CCC(=O)[C@H]32)[C@@H](C)[C@@H]1O [Compound 4e, 14-O-((3-Methylbenzamide-5-aminobenzimidazole-2-yl)thioacetyl) mutilin] | 40 µg/mL (≈ 62.1 µM) | 40 µg/mL (≈ 62.1 µM) | 80 µg/mL (≈ 124 µM) | 40 µg/mL (≈ 62.1 µM) | 40 µg/mL (≈ 62.1 µM) | 40 µg/mL (≈ 62.1 µM) | 0 mm | 0 mm | 20.8 mm | 21.5 mm | 25.6 mm | 27.8 mm | 18.3 mm | 20.8 mm | 17.9 mm | 19.4 mm | 18.1 mm | 20.3 mm
2 | C=C[C@]1(C)C[C@@H](OC(=O)CSc2nc3ccc(NC(=O)c4ccc(C)cc4)cc3[nH]2)[C@]2(C)[C@H](C)CC[C@]3(CCC(=O)[C@H]32)[C@@H](C)[C@@H]1O [Compound 4f, 14-O-((4-Methylbenzamide-5-aminobenzimidazole-2-yl)thioacetyl) mutilin] | 40 µg/mL (≈ 62.1 µM) | 40 µg/mL (≈ 62.1 µM) | 80 µg/mL (≈ 124 µM) | 40 µg/mL (≈ 62.1 µM) | 20 µg/mL (≈ 31.1 µM) | 40 µg/mL (≈ 62.1 µM) | 0 mm | 8.64 mm | 22.9 mm | 22.9 mm | 14.1 mm | 17.3 mm | 16.2 mm | 20.7 mm | 16.7 mm | 17.8 mm | 14 mm | 15.1 mm
3 | C=C[C@]1(C)C[C@@H](OC(=O)CSc2nc3ccc(NC(=O)c4ccccc4OC)cc3[nH]2)[C@]2(C)[C@H](C)CC[C@]3(CCC(=O)[C@H]32)[C@@H](C)[C@@H]1O [Compound 4g, 14-O-((2-Methoxybenzamide-5-aminobenzimidazole-2-yl)thioacetyl) mutilin] | 40 µg/mL (≈ 60.6 µM) | 40 µg/mL (≈ 60.6 µM) | 80 µg/mL (≈ 121 µM) | 40 µg/mL (≈ 60.6 µM) | 40 µg/mL (≈ 60.6 µM) | 10 µg/mL (≈ 15.2 µM) | 0 mm | 9.38 mm | 18.5 mm | 20.1 mm | 19.1 mm | 21.5 mm | 24.3 mm | 25.6 mm | 13.7 mm | 18.3 mm | 16.2 mm | 18 mm
4 | C=C[C@]1(C)C[C@@H](OC(=O)CSc2nc3ccc(NC(=O)c4ccc(OC)cc4)cc3[nH]2)[C@]2(C)[C@H](C)CC[C@]3(CCC(=O)[C@H]32)[C@@H](C)[C@@H]1O [Compound 4i, 14-O-((4-Methoxybenzamide-5-aminobenzimidazole-2-yl)thioacetyl) mutilin] | 40 µg/mL (≈ 60.6 µM) | 40 µg/mL (≈ 60.6 µM) | 40 µg/mL (≈ 60.6 µM) | 20 µg/mL (≈ 30.3 µM) | 20 µg/mL (≈ 30.3 µM) | 5 µg/mL (≈ 7.58 µM) | 14.2 mm | 17.7 mm | 18.6 mm | 21.8 mm | 21.3 mm | 25.7 mm | 23 mm | 32.9 mm | 18.6 mm | 21.5 mm | 17.6 mm | 18.2 mm
5 | C=C[C@]1(C)C[C@@H](OC(=O)CSc2nc3ccc(NC(=O)C4CCCCC4)cc3[nH]2)[C@]2(C)[C@H](C)CC[C@]3(CCC(=O)[C@H]32)[C@@H](C)[C@@H]1O [Compound 4j, 14-O-((Cyclohexanecarboxamide-5-aminobenzimidazole-2-yl)thioacetyl) mutilin] | 5 µg/mL (≈ 7.86 µM) | 1.25 µg/mL (≈ 1.97 µM) | 20 µg/mL (≈ 31.5 µM) | 1.25 µg/mL (≈ 1.97 µM) | 2.5 µg/mL (≈ 3.93 µM) | 10 µg/mL (≈ 15.7 µM) | 17.4 mm | 19.8 mm | 24.7 mm | 27.7 mm | 28 mm | 31.9 mm | 23 mm | 26.4 mm | 15.4 mm | 27.2 mm | 26 mm | 29.1 mm

Now from value to compound, other results behind:

Row | MIC [2] | MIC [3] | MIC [4] | MIC [5] | MIC [6] | Structure (SMILES) | MIC [1] | zone of inhibition at 160 µg/mL (E. coli) | zone of inhibition at 320 µg/mL (E. coli) | zone of inhibition at 160 µg/mL (S. warneri) | zone of inhibition at 320 µg/mL (S. warneri) | zone of inhibition at 160 µg/mL (MRSA) | zone of inhibition at 320 µg/mL (MRSA) | zone of inhibition at 160 µg/mL (S. haemolyticus) | zone of inhibition at 320 µg/mL (S. haemolyticus) | zone of inhibition at 160 µg/mL (S. aureus) | zone of inhibition at 320 µg/mL (S. aureus) | zone of inhibition at 160 µg/mL (S. vitulinus) | zone of inhibition at 320 µg/mL (S. vitulinus)
6 | 40 µg/mL (≈ 60.6 µM) | 40 µg/mL (≈ 60.6 µM) | 40 µg/mL (≈ 60.6 µM) | 40 µg/mL (≈ 60.6 µM) | 40 µg/mL (≈ 60.6 µM) | C=C[C@]1(C)C[C@@H](OC(=O)CSc2nc3ccc(NC(=O)c4cccc(OC)c4)cc3[nH]2)[C@]2(C)[C@H](C)CC[C@]3(CCC(=O)[C@H]32)[C@@H](C)[C@@H]1O [Compound 4h, 14-O-((3-Methoxybenzamide-5-aminobenzimidazole-2-yl)thioacetyl) mutilin] | 10 µg/mL (≈ 15.2 µM) | 15.3 mm | 18 mm | 17.9 mm | 19.8 mm | 16.3 mm | 19.7 mm | 25.4 mm | 28.4 mm | 15.9 mm | 18.7 mm | 19.8 mm | 21.7 mm
7 | 1.25 µg/mL (≈ 2.02 µM) | 1.25 µg/mL (≈ 2.02 µM) | 20 µg/mL (≈ 32.3 µM) | 1.25 µg/mL (≈ 2.02 µM) | 5 µg/mL (≈ 8.08 µM) | C=C[C@]1(C)C[C@@H](OC(=O)CSc2nc3ccc(NC(=O)c4ccc[nH]4)cc3[nH]2)[C@]2(C)[C@H](C)CC[C@]3(CCC(=O)[C@H]32)[C@@H](C)[C@@H]1O [Compound 4k, 14-O-(((1H-Pyrrole-2-carboxamide)-5-aminobenzimidazole-2-yl)thioacetyl) mutilin] | 1.25 µg/mL (≈ 2.02 µM) | 18.5 mm | 20.1 mm | 21.2 mm | 25.5 mm | 26.5 mm | 30.7 mm | 25.5 mm | 29.9 mm | 26.6 mm | 28.9 mm | 24.7 mm | 27 mm
8 | 10 µg/mL (≈ 15 µM) | 5 µg/mL (≈ 7.48 µM) | 20 µg/mL (≈ 29.9 µM) | 10 µg/mL (≈ 15 µM) | 2.5 µg/mL (≈ 3.74 µM) | C=C[C@]1(C)C[C@@H](OC(=O)CSc2nc3ccc(NC(=O)c4cc5ccccc5[nH]4)cc3[nH]2)[C@]2(C)[C@H](C)CC[C@]3(CCC(=O)[C@H]32)[C@@H](C)[C@@H]1O [Compound 4l, 14-O-(((1H-Indole-2-carboxamide)-5-aminobenzimidazole-2-yl)thioacetyl) mutilin] | 10 µg/mL (≈ 15 µM) | 17.4 mm | 20.5 mm | 25.4 mm | 29.6 mm | 19.8 mm | 21.6 mm | 20.8 mm | 25.1 mm | 20.9 mm | 24.7 mm | 22.1 mm | 26.5 mm
